From US20100267713A1, “4,4-DISUBSTITUTED PIPERIDINES” (priority 2007, published 2010) come the findings set out here.

The assay deals with T1, renin (Homo sapiens, UniProt P00797).
T1 construct: This test measures the formation of angiotensin I in human plasma; from tissue; host or cells: human plasma
T1 sequence (P00797 67-406): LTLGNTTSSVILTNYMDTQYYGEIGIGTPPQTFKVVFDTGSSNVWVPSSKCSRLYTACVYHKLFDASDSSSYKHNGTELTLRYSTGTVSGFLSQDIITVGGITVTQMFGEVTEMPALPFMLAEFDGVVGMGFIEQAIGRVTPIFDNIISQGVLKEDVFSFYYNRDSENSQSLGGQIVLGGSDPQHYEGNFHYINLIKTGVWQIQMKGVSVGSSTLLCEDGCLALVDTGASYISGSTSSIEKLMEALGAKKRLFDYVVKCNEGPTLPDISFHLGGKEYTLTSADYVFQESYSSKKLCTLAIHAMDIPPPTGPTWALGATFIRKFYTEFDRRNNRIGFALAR
Briefly: formation of angiotensin I in human plasma, radioimmunoassay (Nussberger et al.). Particulars: read-out: IC50, inhibition of the formation of angiotensin I. It counts as biochemical. The protocol:
The effect of renin inhibitors is detected inter alia experimentally by means of in vitro tests where the reduction in the formation of angiotensin I is measured in various systems (human plasma, purified human renin together with synthetic or natural renin substrate). The following in vitro test of Nussberger et al. (1987) J. Cardiovascular Pharmacol., Vol. 9, pp. 39-44, is used inter alia. This test measures the formation of angiotensin I in human plasma. The amount of angiotensin I formed is determined in a subsequent radioimmunoassay. The effect of inhibitors on the formation of angiotensin I is tested in this system by adding various concentrations of these substances. The IC50 is defined as the concentration of the particular inhibitor which reduces the formation of angiotensin I by 50%. The compounds of the present invention show inhibitory effects in the in vitro systems at minimal concentrations of about 10^−6 to about […].

In general, IC50 refers to the concentration that inhibits the measured activity by half.

SMILES strings stand for the structures.

`CCCc1nc(COC[C@@H](C)OCC)ccc1[C@@]1(O)CCNC[C@@H]1OCc1ccc2c(c1)N(CCCOC)CCO2` [Example 501, (3′S,4′S)-6-((R)-2-Ethoxy-propoxymethyl)-3′-[4-(3-methoxy-propyl)-3,4-dihydro-2H-benzo[1,4]oxazin-6-ylmethoxy]-2-propyl-2′,3′,5′,6′-tetrahydro-1′H-[3,4′]bipyridinyl-4′-ol]: the IC50 came to 48 nM.
